In patent US10183949B2, “Pyrimidinone derivative having autotaxin-inhibitory activity” (The University of Tokyo, priority 2014, dated 2019):

target: T1, Human autotaxin enzyme (Homo sapiens, UniProt Q13822); assay: Evaluation of autotaxin inhibitor, 18:0 Lyso PC / choline assay (Test Example 2); assay type: biochemical; conditions: human autotaxin enzyme, 18:0 Lyso PC substrate, choline assay, room temperature 2 hours; read-out: Inhibitor activity (IC50)
T1 construct: purchased R&D System
Procedure: Solution B containing 100 mM Tris-HCl buffer (pH7.5), 150 mM NaCl, 5 mM MgCl2, and 0.05% Triton X-100 was prepared. Human autotaxin enzyme (purchased from R&D System) was diluted with Solution B, and 2.5 μl of which was added to a solution of test compound in DMSO. Furthermore, 2.5 μl of 200 μM 18:0 Lyso PC (purchased from Avanti Polar Lipids) in Solution B was added and allowed to react at room temperature for 2 hours. After completion of the reaction, 15 μl of the coline assay reagent. (100 mM Tris-HCl buffer (pH7.5), 5 mM. MgCl2, 77 μg/ml coline oxidase, 10 μg/ml peroxydase, 25μM 10-acetyl-3,7-dihydroxyphenoxazine, and excess autotaxin inhibitor) was added and allowed to react at room temperature for 20 minutes. The fluorescent dye Resorufin, which was produced by the reaction, was detected. The fluorescence was detected using ViewLux
(PerkinElmer, Inc.) with a excitation wavelength of 531 nm and a fluorescence wavelength of 598 nm.
The percent inhibition of the test compound was calculated by assuming the sample with no test compound as 0% inhibition and the sample with no enzyme as 100% inhibition, and the percent inhibitions at different concentrations of the test compound were plotted to obtain a concentration-dependent curve.

| IC50 [nM] | Structure (SMILES) |
| --- | --- |
| 10 to 100 | CCCCCc1nc(-c2ccc(Cl)cc2)cc(=O)n1CC(=O)NCC(=O)N1CCC(C(=O)O)CC1 [Compound I-0059] |
| 10 to 100 | CCCCCc1nc(-c2ccc(Cl)cc2)cc(=O)n1CC(=O)N(CCC(=O)O)C1CCCC1 [Compound I-0062] |
| ≥ 1000 | CCCCCc1nc(-c2ccc(Cl)cc2)cc(=O)n1CC(=O)N1CCC(C(=O)O)C1 (stereo not shown) [Compound I-0066] |
| 100 to 1000 | CCCCCc1nc(-c2ccc(Cl)cc2)cc(=O)n1CC(=O)N1CCOC[C@H]1C(=O)O [Compound I-0067] |
| 10 to 100 | CCCCCc1nc(-c2ccc(Cl)cc2)cc(=O)n1CC(=O)NC1(C(=O)O)CC1 [Compound I-0069] |
| ≥ 1000 | CCCCCc1nc(-c2ccc(Cl)cc2)cc(=O)n1Cc1cccc(C(=O)OC)c1 [Compound I-0074] |
| ≥ 1000 | CCCCCc1nc(-c2ccc(Cl)cc2)cc(=O)n1CC(=O)NC(CO)Cc1ccc(F)cc1 (stereo not shown) [Compound I-0075] |
| 10 to 100 | CCCCCc1nc(-c2ccc(Cl)cc2)cc(=O)n1CC(=O)NCCC#N [Compound I-0080] |
| 100 to 1000 | CCCCCc1nc(-c2ccc(Cl)cc2)cc(=O)n1CC(=O)NC1CCCNC1=O (stereo not shown) [Compound I-0082] |
| 10 to 100 | CCCCCc1nc(-c2ccc(Cl)cc2)cc(=O)n1CC(=O)N1CCOCC1 [Compound I-0084] |
| 10 to 100 | CCCCCc1nc(-c2ccc(Cl)cc2)cc(=O)n1CC(=O)NC1(c2cccnc2)CC1 [Compound I-0089] |
| ≥ 1000 | CCCCCc1nc(-c2ccc(Cl)cc2)cc(=O)n1CC(=O)N1CC2(COC2)C1 [Compound I-0091] |
| 100 to 1000 | CCCCCc1nc(-c2ccc(Cl)cc2)cc(=O)n1CC(=O)N[C@@H](CO)Cc1ccccc1 [Compound I-0092] |
| 10 to 100 | CCCCCc1nc(-c2ccc(Cl)cc2)cc(=O)n1CC(=O)N1[C@H](C)COC[C@@H]1C [Compound I-0095] |
| 100 to 1000 | CCCCCc1nc(-c2ccc(Cl)cc2)cc(=O)n1CC(=O)N[C@@H]1CCN(C(C)=O)C1 [Compound I-0097] |
| 100 to 1000 | CCCCCc1nc(-c2ccc(Cl)cc2)cc(=O)n1CC(=O)N1CCOC(c2ccccc2)C1 (stereo not shown) [Compound I-0100] |
| 10 to 100 | CCCCCc1nc(-c2ccc(Cl)cc2)cc(=O)n1CC(=O)NCCc1ccccc1 [Compound I-0103] |
| 100 to 1000 | N#CCCCNc1nc(-c2ccc(C#N)cc2)cc(=O)n1Cc1ccccc1 [Compound I-0105] |
| ≥ 1000 | O=C(O)Cn1c(CCCC(F)(F)F)nc(-c2ccc(Cl)cc2)cc1=O [Compound I-0110] |
| 10 to 100 | COC(=O)c1cccc(Cn2c(CCCC(F)(F)F)nc(-c3ccc(Cl)cc3)cc2=O)c1 [Compound I-0111] |
| 10 to 100 | CCCCCc1nc(-c2ccc(Cl)cc2)cc(=O)n1CC(=O)N1CCC(C(=O)OC)CC1 [Compound I-0113] |
| 10 to 100 | NC(=O)C1CCN(C(=O)Cn2c(CCCC(F)(F)F)nc(-c3ccc(Cl)cc3)cc2=O)CC1 [Compound I-0118] |
| < 10 | O=C(Cn1c(CCCC(F)(F)F)nc(-c2ccc(Cl)cc2)cc1=O)NCc1cc(=O)[nH]o1 [Compound I-0120] |
| 10 to 100 | O=C(Cn1c(CCCC(F)(F)F)nc(-c2ccc(Cl)cc2)cc1=O)NCC1(CO)CC1 [Compound I-0124] |
| 100 to 1000 | CN(C)C(=O)CNC(=O)Cn1c(CCCC(F)(F)F)nc(-c2ccc(Cl)cc2)cc1=O [Compound I-0127] |

Further lines, the compound ahead of its results:

| Structure (SMILES) | IC50 [nM] |
| --- | --- |
| CCCCCc1nc(-c2ccc(Cl)cc2)cc(=O)n1CC(=O)NC(C(=O)O)c1ccc(O)cc1 (stereo not shown) [Compound I-0060] | 10 to 100 |
| CCCCCc1nc(-c2ccc(Cl)cc2)cc(=O)n1CC(=O)NC(CC(=O)O)c1ccccc1 (stereo not shown) [Compound I-0061] | 10 to 100 |
| CCCCCc1nc(-c2ccc(Cl)cc2)cc(=O)n1CC(=O)NC1CCC(C(=O)O)CC1 (stereo not shown) [Compound I-0063] | < 10 |
| CCCCCc1nc(-c2ccc(Cl)cc2)cc(=O)n1CC(=O)NCCCCC(=O)O [Compound I-0064] | < 10 |
| CCCCCc1nc(-c2ccc(Cl)cc2)cc(=O)n1CC(=O)NCC(=O)O [Compound I-0065] | 10 to 100 |
| CCCCCc1nc(-c2ccc(Cl)cc2)cc(=O)n1CC(=O)N1CCCC1C(=O)O (stereo not shown) [Compound I-0068] | ≥ 1000 |
| CCCCCc1nc(-c2ccc(Cl)cc2)cc(=O)n1CC(=O)NCC(C)(C)C(=O)O [Compound I-0070] | < 10 |
| CCCCCc1nc(-c2ccc(Cl)cc2)cc(=O)n1CC(=O)N[C@H]1C[C@H](C(=O)O)C1 [Compound I-0071] | < 10 |
| CCCCCc1nc(-c2ccc(Cl)cc2)cc(=O)n1CC(=O)NC12CCC(C(=O)O)(CC1)CC2 [Compound I-0072] | < 10 |
| CCCCCc1nc(-c2ccc(Cl)cc2)cc(=O)n1CC(=O)NC1(C(=O)O)CCC1 [Compound I-0073] | < 10 |
| CCCCCc1nc(-c2ccc(Cl)cc2)cc(=O)n1CC(=O)N1CCOCC1c1ccccc1 (stereo not shown) [Compound I-0076] | 100 to 1000 |
| CCCCCc1nc(-c2ccc(Cl)cc2)cc(=O)n1CC(=O)NC1(C#N)CCCCC1 [Compound I-0077] | 100 to 1000 |
| CCCCCc1nc(-c2ccc(Cl)cc2)cc(=O)n1CC(=O)N[C@@H]1CN2CCC1CC2 [Compound I-0078] | ≥ 1000 |
| CCCCCc1nc(-c2ccc(Cl)cc2)cc(=O)n1CC(=O)NC(C)CC#N (stereo not shown) [Compound I-0079] | 10 to 100 |
| CCCCCc1nc(-c2ccc(Cl)cc2)cc(=O)n1CC(=O)NC1CCS(=O)(=O)C1 (stereo not shown) [Compound I-0081] | 10 to 100 |
| CCCCCc1nc(-c2ccc(Cl)cc2)cc(=O)n1CC(=O)Nc1ncc(C#N)s1 [Compound I-0083] | ≥ 1000 |
| CCCCCc1nc(-c2ccc(Cl)cc2)cc(=O)n1CC(=O)NCC#N [Compound I-0085] | 10 to 100 |
| CCCCCc1nc(-c2ccc(Cl)cc2)cc(=O)n1CC(=O)NC1CCOCC1 [Compound I-0086] | 100 to 1000 |
| CCCCCc1nc(-c2ccc(Cl)cc2)cc(=O)n1CC(=O)N1CCC(F)(F)CC1 [Compound I-0087] | 10 to 100 |
| CCCCCc1nc(-c2ccc(Cl)cc2)cc(=O)n1CC(=O)NCC(O)Cc1ccccc1 (stereo not shown) [Compound I-0088] | 10 to 100 |
| CCCCCc1nc(-c2ccc(Cl)cc2)cc(=O)n1CC(=O)NC1(C#N)CC1 [Compound I-0090] | 10 to 100 |
| CCCCCc1nc(-c2ccc(Cl)cc2)cc(=O)n1CC(=O)NC1CCS(=O)(=O)CC1 [Compound I-0093] | 10 to 100 |
| CCCCCc1nc(-c2ccc(Cl)cc2)cc(=O)n1CC(=O)NCCS(C)(=O)=O [Compound I-0094] | 10 to 100 |

| Structure (SMILES) | IC50 [nM] |
| --- | --- |
| CCCCCc1nc(-c2ccc(Cl)cc2)cc(=O)n1CC(=O)NCCC(C)O (stereo not shown) [Compound I-0096] | 100 to 1000 |
| CCCCCc1nc(-c2ccc(Cl)cc2)cc(=O)n1CC(=O)NCC(C)(C)O [Compound I-0098] | 10 to 100 |
| CCCCCc1nc(-c2ccc(Cl)cc2)cc(=O)n1CC(=O)Nc1cc(C2CC2)no1 [Compound I-0099] | ≥ 1000 |
| CCCCCc1nc(-c2ccc(Cl)cc2)cc(=O)n1CC(=O)N[C@@H](CCc1ccccc1)C(=O)O [Compound I-0101] | 10 to 100 |
| CCCCCc1nc(-c2ccc(Cl)cc2)cc(=O)n1CC(=O)NCCCc1ccccc1 [Compound I-0102] | 100 to 1000 |
| CCCCCc1nc(-c2ccc(Cl)cc2)cc(=O)n1CC(=O)NC1CN2CCC1CC2 (stereo not shown) [Compound I-0104] | 100 to 1000 |
| N#CCNc1nc(-c2ccc(C#N)cc2)cc(=O)n1Cc1ccccc1 [Compound I-0106] | ≥ 1000 |
| COc1ccc(Cn2c(-c3ccc(Cl)cc3)cc(=O)n(CC(=O)NC(Cc3ccccc3)C(=O)O)c2=O)cc1 (stereo not shown) [Compound I-0107] | ≥ 1000 |
| Cn1c(=O)cc(-c2ccc(Cl)cc2)n(CCCC#N)c1=N [Compound I-0108] | ≥ 1000 |
| COC(=O)Cn1c(CCCC(F)(F)F)nc(-c2ccc(Cl)cc2)cc1=O [Compound I-0109] | 10 to 100 |
| O=C(O)c1cccc(Cn2c(CCCC(F)(F)F)nc(-c3ccc(Cl)cc3)cc2=O)c1 [Compound I-0112] | 10 to 100 |
| CCCCCc1nc(-c2ccc(Cl)cc2)cc(=O)n1CC(=O)NC(C)(C)C(=O)OC [Compound I-0114] | 10 to 100 |
| N#CCCCn1c(-c2ccc(Cl)cc2)cc(=O)n(CC(=O)NC(Cc2ccccc2)C(=O)O)c1=O (stereo not shown) [Compound I-0115] | ≥ 1000 |
| N#CCCCOc1nc(-c2ccc(Cl)cc2)cc(=O)n1CC(=O)NC(Cc1ccccc1)C(=O)O (stereo not shown) [Compound I-0116] | 10 to 100 |
| O=C(Cn1c(CCCC(F)(F)F)nc(-c2ccc(Cl)cc2)cc1=O)N(CCO)CCO [Compound I-0117] | 10 to 100 |
| CC(O)CNC(=O)Cn1c(CCCC(F)(F)F)nc(-c2ccc(Cl)cc2)cc1=O (stereo not shown) [Compound I-0119] | 10 to 100 |
| O=C(Cn1c(CCCC(F)(F)F)nc(-c2ccc(Cl)cc2)cc1=O)NCCN1CCNC1=O [Compound I-0121] | 100 to 1000 |
| CC(C)(CNC(=O)Cn1c(CCCC(F)(F)F)nc(-c2ccc(Cl)cc2)cc1=O)N1CCOCC1 [Compound I-0122] | 100 to 1000 |
| N#CC1(NC(=O)Cn2c(CCCC(F)(F)F)nc(-c3ccc(Cl)cc3)cc2=O)CC1 [Compound I-0123] | 10 to 100 |
| C[C@@H]1COC[C@H](C)N1C(=O)Cn1c(CCCC(F)(F)F)nc(-c2ccc(Cl)cc2)cc1=O [Compound I-0125] | 10 to 100 |
| CNC(=O)CNC(=O)Cn1c(CCCC(F)(F)F)nc(-c2ccc(Cl)cc2)cc1=O [Compound I-0126] | 100 to 1000 |
| CCNC(=O)N1CCC(NC(=O)Cn2c(CCCC(F)(F)F)nc(-c3ccc(Cl)cc3)cc2=O)CC1 [Compound I-0128] | 10 to 100 |
